Data from patent US8129527B2, “Analogs of dehydrophenylahistins and their therapeutic use” (Nereus Pharmacuticals, Inc., priority 2006, dated 2012).
Converted amounts (≈) assume the structure as drawn. Like-named read-outs stand apart in the source and are kept apart here.

Columns and labels:
[1] = system: HT-29 human colorectal carcinoma cells; experiment: Cytotoxic effect against HT-29 cells (Table 30); type: cell-based
Protocol: The following additional dehydrophenylahistin derivatives were synthesized according to the methods described herein and their cytotoxic effect against HT-29 human colorectal carcinoma cells were determined.

Candida albicans = experiment: Antifungal susceptibility testing, broth dilution (MIC/MFC); type: cell-based
Protocol: (§1) Specifically, disclosed compounds were evaluated alongside commercially available microtubulin inhibitors as well as recognized antifungal agents.
(§2) Microorganisms against which these compounds were tested included: Candida albicans, Candida glabrata, Aspergillus fumigatus, Trichophyton rubrum, Trichophyton mentagrophytes, Epidermophyton floccosum. With the exception of Candida glabrata (one isolate), two isolates of each species were tested.
(§3) The minimum lethal concentration (MLC) was determined by plating […] from the MIC concentration and each concentration above the MIC. […] When a MIC was obtained, a minimum fungicidal concentration (MFC) was determined to assess the fungistatic/fungicidal nature of the compound.

Trichophyton rubrum = experiment: as above; type: cell-based; settings: in words
Protocol: as §1, §2, §3

Candida glabrata = experiment: as above; type: cell-based; settings: C. glabrata
Protocol: as §1, §2, §3

Aspergillus fumigatus = experiment: as above; type: cell-based; settings: Aspergillus fumigatus, read-out: MIC
Protocol: as §1, §2, §3

[2] = system: Trichophyton mentagrophytes; experiment: as above; type: cell-based; settings: in words
Protocol: Specifically, disclosed compounds were evaluated alongside commercially available microtubulin inhibitors as well as recognized antifungal agents. […].
as §2
Drug concentrations were 0.03-16 μg/ml for the investigational compounds, 0.015-8 μg/ml for itraconazole and griseofulvin.
as §3, with “compound. […] The compound is scored as fungistatic if the cells are able to resume growth and fungicidal if no regrowth is possible because the compound had killed the organisms.” for “compound.”

HT-29 human colon cells = experiment: Tumor cytotoxicity assay, resazurin fluorescence, 48 h (Example 6); type: cell-based; settings: Homo sapiens
[3] = system: P388 murine leukemia cells; experiment: Cytotoxic effect in P388 cells; type: cell-based; settings: Mus musculus, P388, read-out: IC50 (nM) P-388; Table 2
Source text: The cytotoxic effects of phenylahistin, dehydrophenylahistin and various derivatives of dehydrophenylahistin were examined in P388 murine leukemia cells, HT-29 human colon cells, and PC-3 prostatic adenocarcinoma cells.

[4] = system: MES-SA/Dx5 multidrug resistant; experiment: Cell growth inhibition assay, resazurin (Example 11); type: cell-based, human
Protocol: (§4) Human uterine sarcoma (MES-SA; CRL-1976), its multidrug resistant derivative (MES-SA/Dx5; CRL-1977), human acute promyelocytic leukemia cells (HL-60; CCL-240) and its multidrug resistant derivative (HL-60/MX2; CRL-2257) were purchased from ATCC and maintained in appropriate culture media. The cells were cultured in an incubator at 37° C. in 5% CO2 and 95% humidified air.
(§5) For cell growth inhibition assays, MES-SA and MES-SA/Dx5 cells were both seeded at 3×10^3 cells/well in 90 μl complete media into 96 well (Corning; 3904) black-walled, clear-bottom tissue culture plates and the plates were incubated overnight to allow cells to establish and enter log phase growth. HL-60 and HL-60/MX2 cells were both seeded at 5×10^4 cells/well in 90 μl complete media into 96 well plates on the day of compound addition. 20 mM stock solutions of the compounds were prepared in 100% DMSO and stored at −80° C. […] Ten μl volumes of the 10× serial dilutions were added to the test wells in triplicate and the plates returned to the incubator for 48 hours. The final concentration of DMSO was 0.25% in all samples.
(§6) Following 48 hours of drug exposure, 10 μl of 0.2 mg/ml resazurin (obtained from Sigma-Aldrich Chemical Co.) in Mg^2+, Ca^2+ free phosphate buffered saline was added to each well and the plates were returned to the incubator for 3-6 hours. […] Resazurin dye in medium without cells was used to determine the background, which was subtracted from the data for all experimental wells.
(§7) The multidrug resistant MES-SA/Dx5 tumor cell line was derived from the human uterine sarcoma MES-SA tumor cell line and expresses elevated P-Glycoprotein (P-gp), an ATP dependent efflux pump. The data in Table 19 summarize the growth inhibitory effects of NPI-2421, NPI-2463, NPI-2503, NPI-2504 and NPI-2506 against MES-SA and its multidrug resistant derivative MES-SA/Dx5. Paclitaxel, a known substrate of the P-gp pump was included as a control.

[5] = system: MES-SA human uterine sarcoma; experiment: as above; type: cell-based; settings: mean ± standard deviation of three independent experiments
Protocol: as §4, §5, §6, §7

[6] = system: HT-29 human colorectal carcinoma cells; experiment: Cell growth inhibition assay, resazurin (Table 3.2); type: cell-based; settings: Table 3.2, HT-29 cells, read-out: EC50 (M) Mean
Protocol: The cytotoxic effects of various derivatives of dehydrophenylahistin against HT-29 human colorectal carcinoma cells were determined.
HT-29 cells (ATCC; HTB-38) were maintained in ATCC recommended culture media and cultured in an incubator at 37° C. in 5% CO2 and 95% humidified air.
For cell growth inhibition assays, HT-29 cells were seeded at 5×10^3 cells/well in 90 μl complete media into a Corning 3904 black-walled, clear-bottom tissue culture plates and the plates were incubated overnight to allow cells to establish and enter log phase growth. 20 mM stock solutions of compounds were prepared in 100% DMSO and stored at −80° C. 10× concentrated serial dilutions of the compounds were prepared in culture medium for final concentrations ranging from 20 μM to […]. Ten μl volumes of the 10× serial dilutions were added to the test wells in triplicate and the plates returned to the incubator for 48 hours. The final concentration of DMSO was 0.25% in all samples.
as §6, with “3-4” for “3-6”

[7] = system: HL-60 human acute promyelocytic leukemia cells; experiment: Cell growth inhibition assay, resazurin (Example 11); type: cell-based; settings: mean values of two independent experiments
Protocol: as §4, §5, §6
(§8) HL-60/MX2 is a multidrug resistant tumor cell line derived from the human promyelocytic leukemia cell line, HL-60 and expresses reduced topoisomerase II activity. The data presented in Table 20 summarize the growth inhibitory effects of NPI-2421, NPI-2463, NPI-2503, NPI-2504 and NPI-2506 against HL-60 and its multidrug resistant derivative HL-60/MX2. Mitoxantrone, the topoisomerase II targeting agent was included as a control.

[8] = system: HL-60/MX2 multidrug resistant; experiment: as above; type: cell-based, human
Protocol: as §4, §5, §6, §8

[9] = system: MES-SA/Dx5 (Taxol Resistant) human uterine sarcoma; experiment: Drug resistant cell line pair, cytotoxicity (Example 10B); type: cell-based; settings: vs MES-SA
Source text: 1) Human Uterine Sarcoma Tumor Cell Line Pair: MES-SA (Taxol Sensitive) and MES-SA/Dx5 (Taxol Resistant).

[10] = system: PC-3 prostatic adenocarcinoma cells; experiment: Tumor cytotoxicity assay, resazurin fluorescence, 48 h (Example 6); type: cell-based, human; settings: Homo sapiens, read-out: EC50 (nM) PC-3
Protocol: 10× concentrated serial dilutions of the two compounds were prepared in appropriate culture medium for final concentrations ranging from 2.0×10^−5 M to 2.0×10^−10 M. Ten μl volumes of the 10× serial dilutions were added to the test wells in triplicate and the plates returned to the incubator for 48 hours.
as §6, with “exposure” for “exposure,”, “PBS” for “phosphate buffered saline”, “3-4” for “3-6”, “dye” for “dye in medium”, “wells. The data were analyzed using Prism software (GraphPad Software).” for “wells.”
PC-3, a human prostate adenocarcinoma, was maintained in F12K complete medium (F12K medium supplemented with 10% FBS; 2 mM Glutamine; 1% HEPES; and Pen/Strep at 100 IU/ml and 100 µg/ml, respectively).

[11] = HT-29 cells, read-out: EC50 (M) Mean
[12] = Candida albicans, C. albicans 90028, read-out: MIC
[13] = Nakaseomyces glabratus, read-out: MIC

CC(C)(C)c1ocnc1/C=c1\[nH]c(=O)/c(=C/c2cccc(C(N)=O)c2)[nH]c1=O [Compound 2533]
EC50 [1, 11]: 1.8e-06 M

COC(=O)c1cccc(/C=c2\[nH]c(=O)/c(=C/c3nc[nH]c3C(C)(C)C)[nH]c2=O)c1 [Compound 2527]
EC50 ([1]; HT-29, read-out: EC50 (M) Mean): 1.9e-07 M

CC(C)(C)c1[nH]cnc1/C=c1\[nH]c(=O)/c(=C/c2cccc(C(N)=O)c2)[nH]c1=O [Compound 2529]
EC50 ([1]; HT-29, read-out: EC50 (M) Mean): 5e-06 M

C=CC(C)(C)c1[nH]cnc1/C=C1\NC(=O)[C@H](Cc2ccccc2)NC1=O [(−)-Phenylahistin, reference compound]
MIC (Candida albicans; [12]): > 70 µg/mL
antifungal potency versus T. rubrum (Trichophyton rubrum): significantly less potent than the other compounds
MIC (Candida glabrata; [13]): > 70 µg/mL
MIC (Aspergillus fumigatus; A. fumigatus isolate #1): > 16 µg/mL
MIC (Aspergillus fumigatus; A. fumigatus isolate #2): > 16 µg/mL
antifungal potency versus the sensitive T. mentagrophytes isolate [2]: weaker but more comparable to the others
EC50 (HT-29 human colon cells; HT-29, Table 2, read-out: EC50 (nM) HT-29): 1600 nM
IC50 [3]: 833 ± 153 nM

CC(C)(C)c1ocnc1/C=c1\[nH]c(=O)/c(=C/c2c(F)ccc(F)c2F)[nH]c1=O [Compound 2506, tBu-oxadelta-PLH-2,3,6-trifluoro]
EC50 ([4]; Homo sapiens, MES-SA/Dx5, mean ± standard deviation of three independent experiments): 27 ± 6 nM
cytotoxic activity against both MES-SA and MES-SA/Dx5 ([4]; in words): retained equivalent cytotoxic activity
Fold change ([4]; ratio of EC50 values (MES-SA/Dx5:MES-SA)): 1.2
EC50 [5]: 22 ± 3 nM
EC50 [6]: 2.4e-08 M
EC50 [7]: 32 nM
EC50 ([8]; Homo sapiens, HL60/MX2, HL-60/MX2, mean values of two independent experiments): 31 nM
cytotoxic activity against both HL-60 and HL-60/MX2 ([8]; in words): retained cytotoxic activity
Fold change ([8]; ratio of EC50 values (HL-60/MX2:HL-60)): 1.0

COc1cc([C@@H]2c3cc4c(cc3[C@@H](O[C@@H]3O[C@@H]5CO[C@@H](C)O[C@H]5[C@H](O)[C@H]3O)[C@H]3COC(=O)[C@H]23)OCO4)cc(OC)c1O [etoposide, Etoposide, reference compound]
reduced susceptibility of the MES-SA/DX5 cell line [9]: 60 fold

C[C@@H]1[C@H](O)[C@@H](C)/C=C/C=C/C=C/C=C/C=C/C=C/C=C/[C@H](O[C@@H]2O[C@H](C)[C@@H](O)[C@H](N)[C@@H]2O)C[C@@H]2O[C@](O)(C[C@@H](O)C[C@@H](O)[C@H](O)CC[C@@H](O)C[C@@H](O)CC(=O)O[C@H]1C)C[C@H](O)[C@H]2C(=O)O [amphotericin B, Amphotericin B]
MFC (Candida albicans; C. albicans 10231): 0.5 µg/mL (≈ 0.541 µM)
MIC (Candida albicans; C. albicans 10231): 0.5 µg/mL (≈ 0.541 µM)
MFC (Candida albicans; C. albicans 90028): 0.5 µg/mL (≈ 0.541 µM)
MIC (Candida albicans; C. albicans 90028): 0.5 µg/mL (≈ 0.541 µM)
MFC (Candida glabrata): 1 µg/mL (≈ 1.08 µM)
MIC (Candida glabrata): 1 µg/mL (≈ 1.08 µM)

CC(C)(C)c1[nH]cnc1/C=c1\[nH]c(=O)/c(=C/c2cccc(OP(=O)(O)O)c2)[nH]c1=O [Compound 2521]
EC50 ([1]; HT-29, read-out: EC50 (M) Mean): 2.8e-07 M

CC(C)(C)c1ocnc1/C=c1\[nH]c(=O)/c(=C/c2cccc(C(=O)c3ccc(CNC(=O)CCCCCNC(=O)CCCCCNC(=O)CCCC[C@@H]4SC[C@H]5NC(=O)N[C@@H]45)cc3)c2)[nH]c1=O [Compound 2545]
EC50 [1, 11]: 1.1e-06 M

CC(C)(C)c1ocnc1/C=c1\[nH]c(=O)/c(=C/c2cccc(C(=O)c3ccc(CN)cc3)c2)[nH]c1=O [Compound 2534]
EC50 ([1]; HT-29, read-out: EC50 (M) Mean): 5.3e-07 M

COc1cccc2c1C(=O)c1c(O)c3c(c(O)c1C2=O)C[C@@](O)(C(=O)CO)C[C@@H]3O[C@H]1C[C@H](N)[C@H](O)[C@H](C)O1 [doxorubicin, Doxorubicin, reference compound]
reduced susceptibility of the MES-SA/DX5 cell line [9]: 34 fold

CCCCNC(=O)n1c(NC(=O)OC)nc2ccccc21 [benomyl, Benomyl]
MFC (Candida albicans; Candida albicans, C. albicans 90028, read-out: MFC): > 512 µg/mL
MIC (Candida albicans; [12]): 64 µg/mL (≈ 220 µM)
MFC (Candida glabrata; Nakaseomyces glabratus, read-out: MFC): > 512 µg/mL
MIC (Candida glabrata; [13]): 64 µg/mL (≈ 220 µM)

CC(C)(C)c1[nH]cnc1/C=c1\[nH]c(=O)/c(=C/c2ccccc2)[nH]c1=O [tBu-ΔPLH]
EC50 [10]: 1 nM
EC50 (HT-29 human colon cells; HT-29, read-out: EC50 (nM) HT29, Table 1): 13 nM

CC(C)(C)c1[nH]cnc1/C=c1\[nH]c(=O)/c(=C/c2cccc(C(=O)O)c2)[nH]c1=O [Compound 2528]
EC50 [1, 11]: > 2e-05 M
